Reference: patent publication US10959986B2, “Inhibitors of indoleamine 2,3-dioxygenase and methods of their use” (BRISTOL-MYERS SQUIBB COMPANY, priority 2018, dated 2021)
Where two headings read alike, the source gives them in different places.

Assays:
[1] = target: T1, indoleamine 2,3-dioxygenase (IDO) (Homo sapiens, UniProt P14902); assay: HeLa cell-based indoleamine 2,3-dioxygenase (IDO) assay; settings: HeLa cells with IFNγ 25 ng/mL, 48 hour incubation, kynurenine production
T1 construct: media containing IFNγ (#285-IF/CF, R&D Systems) at a final concentration of 25 ng/mL; endogenous in cells; host or cells: HeLa (ATCC CCL-2), induced with IFN-gamma
T1 sequence (P14902 whole entry): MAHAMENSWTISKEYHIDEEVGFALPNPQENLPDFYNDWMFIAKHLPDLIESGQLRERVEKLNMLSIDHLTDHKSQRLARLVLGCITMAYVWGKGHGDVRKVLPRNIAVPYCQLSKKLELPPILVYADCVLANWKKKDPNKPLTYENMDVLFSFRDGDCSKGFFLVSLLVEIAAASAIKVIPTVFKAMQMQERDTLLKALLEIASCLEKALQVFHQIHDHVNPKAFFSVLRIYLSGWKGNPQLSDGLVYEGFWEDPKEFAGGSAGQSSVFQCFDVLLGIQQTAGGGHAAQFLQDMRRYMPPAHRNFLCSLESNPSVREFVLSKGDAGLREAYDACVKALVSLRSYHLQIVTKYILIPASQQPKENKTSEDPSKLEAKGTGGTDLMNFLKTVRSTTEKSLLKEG
Protocol: Assessment of Inhibitor Activity in HeLa Cell-Based Indoleamine 2,3-Dioxygenase (IDO) Assay.
HeLa (ATCCR CCL-2) cells were obtained from the ATCC® and cultured in Dulbecco's Modified Eagle Medium supplemented with 4.5 g/L glucose, […] L-glutamine and […] (#10-013-CV, Corning), 2 mM L-alanyl-L-glutamine dipeptide (#35050-061, Gibco), 100U/mL penicillin, 100 µg/mL streptomycin (#SV30010, HyClone) and 10% fetal bovine serum (#SH30071.03 HyClone). Cells were maintained in a humidified incubator at 37° C. in 5% CO2.
IDO activity was assessed as a function of kynurenine production as follows: HeLa cells were seeded in a 96-well culture plate at a density of 5,000 cells/well and allowed to equilibrate overnight. After 24 hours, the media was aspirated and replaced with media containing IFNγ (#285-IF/CF, R&D Systems) at a final concentration of 25 ng/mL. A serial dilution of each test compound was added to the cells in a total volume of 200 μL of culture medium. After a further 48 hour incubation, 170 μL of supernatant was transferred from each well to a fresh 96-well plate. 12.1 μL of 6. IN trichloroacetic acid (#T0699, Sigma-Aldrich) was added to each well and mixed, followed by incubation at 65° C. for 20 minutes to hydrolyze N-formylkynurenine, the product of indoleamine 2,3-dioxygenase, to kynurenine. The reaction mixture was then centrifuged for 10 mins at 500×g to sediment the precipitate. 100 μL of the supernatant was transferred from each well to a fresh 96-well plate. 100 μl of 2% (w/v) p-dimethylaminobenzaldehyde (#15647-7, Sigma-Aldrich) in acetic acid (#A6283, Sigma-Aldrich) was added to each well mixed and incubated at room temperature for 20 mins. Kynurenine concentrations were determined by measuring absorbance at 480 nm and calibrating against an L-kynurenine (#K8625, Sigma-Aldrich) standard curve using a SPECTRAMAX® M2e microplate reader (Molecular Devices). The percentage activity at each inhibitor concentration was determined and IC50 values assessed using nonlinear regression.

human IDO1 = target: T2, human IDO1 (Homo sapiens, UniProt P14902); assay: HEK293 cell-based indoleamine 2,3-dioxygenase (IDO) assay; settings: HEK293 cells stably expressing human IDO1, 20 hours incubation; read-out: IDO1 HEK Human IC50
T2 construct: expressed in transfected cells
T2 sequence (P14902 whole entry): as above
Protocol: Assessment of Inhibitor Activity in HEK293 Cell-Based Indoleamine 2,3-Dioxygenase (IDO) Assay.
HEK293 cells were transfected with a pCDNA-based mammalian expression vector harboring human IDO1 cDNA (NM 002164.2) by electroporation. They were cultured in medium (DMEM with 10% FBS) containing 1 mg/ml G418 for two weeks. Clones of HEK293 cells that stably expressed human IDO1 protein were selected and expanded for IDO inhibition assay.
The human IDO1/HEK293 cells were seeded at 10,000 cells per 50 μL per well with RPMI/phenol red free media contains 10% FBS in a 384-well black wall clear bottom tissue culture plate (Matrix Technologies LLC) 100 nL of certain concentration of compound was then added to each well using ECHO liquid handling systems. The cells were incubated for 20 hours in 37° C. incubator with 5% CO2.
The compound treatments were stopped by adding trichloroacetic acid (Sigma-Aldrich) to a final concentration at 0.2%. The cell plate was further incubated at 50° C. for 30 minute. The equal volume supernatant (20 μL) and 0.2% (w/v) Ehrlich reagent (4-dimethylaminobenzaldehyde, Sigma-Aldrich) in glacial acetic acid were mixed in a new clear bottom 384-well plate. This plate was then incubated at room temperature for 30 minute. The absorbance at 490 nm was measured on Envision plate reader.
Compound IC50 values were calculated using the counts of 500 nM of a reference standard treatment as one hundred percent inhibition, and counts of no compound but DMSO treatment as zero percent inhibition.

[2] = read-out: IDO Hela IC50 potency class (A < 50, B < 250, C < 2000)

Row | Molecule | IC50 [1, 2] | IC50 (human IDO1) | IC50 ([1]; read-out: IDO Hela IC50)
1 | CC[C@@H](CC(=O)O)c1ccc([C@H]2CC[C@@H](c3ccccc3)CC2)c(NC(=O)Nc2ccc(C)cc2)c1 (single isomer, unassigned) [Example 2-3, 3-(4-(4-phenylcyclohexyl)-3-(3-(p-tolyl)ureido)phenyl)pentanoic acid] | < 50 nM | 1 nM | –
2 | CC[C@@H](CC(=O)O)c1ccc([C@H]2CC[C@@H](c3ccccc3)CC2)c(NC(=O)Nc2ccc(C)cc2)c1 (single isomer, unassigned) [Example 1-1, 3-(4-(4-phenylcyclohexyl)-3-(3-(p-tolyl)ureido)phenyl)pentanoic acid] | – | 499 nM | –
3 | CC[C@@H](CC(=O)O)c1ccc([C@H]2CC[C@@H](c3ccccc3)CC2)c(NC(=O)Nc2ccc(C)cc2)c1 (single isomer, unassigned) [Example 1-2, 3-(4-(4-phenylcyclohexyl)-3-(3-(p-tolyl)ureido)phenyl)pentanoic acid] | – | 1600 nM | –
4 | CCOc1ncc(Nc2cc([C@H](CC)CC(=O)O)ccc2-c2ncc(F)cn2)cn1 (single isomer, unassigned) [Example 63] | – | – | 700 nM
5 | CC[C@H](CC(=O)O)c1ccc(-c2cnn(C)c2)c(NC(=O)Nc2ccc(Cl)cc2F)c1 (single isomer, unassigned) [Example 23] | 250 to 2000 nM | – | ≥ 1000 nM
6 | CC[C@@H](CC(=O)O)c1ccc([C@H]2CC[C@@H](c3ccccc3)CC2)c(NC(=O)Nc2ccc(C)cc2)c1 (single isomer, unassigned) [Example 1-4, 3-(4-(4-phenylcyclohexyl)-3-(3-(p-tolyl)ureido)phenyl)pentanoic acid] | < 50 nM | 3 nM | –
7 | CCOc1ncc(Nc2cc([C@H](CC)CC(=O)O)ccc2-c2ccncc2F)cn1 (single isomer, unassigned) [Example 52] | 250 to 2000 nM | – | ≥ 1000 nM
8 | (S)-3-(2-((4-cyanophenyl)amino)- -methyl- [1,1′-biphenyl]-4-yl)-4-methoxybutanoic acid [Example 37] | 250 to 2000 nM | – | ≥ 1000 nM
9 | COC[C@H](CC(=O)O)c1ccc(-c2cnn(Cc3ccccc3)c2)c(Nc2ccc(C#N)cc2)c1 (single isomer, unassigned) [Example 44] | – | – | 450 nM
10 | CCc1ncc(Nc2cc([C@@H](CC)CC(=O)O)ccc2C2CCN(C(=O)OC(C)(C)C)CC2)cn1 (single isomer, unassigned) [Example 31] | – | – | 20 nM
11 | COC[C@H](CC(=O)O)c1ccc(-c2ccc3c(c2)OCO3)c(Nc2ccc(C#N)cc2)c1 (single isomer, unassigned) [Example 38] | – | – | 50 nM
12 | CCOc1ncc(Nc2cc([C@H](CC)CC(=O)O)ccc2-c2ccc(Cl)c(F)c2)cn1 (single isomer, unassigned) [Example 72] | – | – | 210 nM
13 | CCOc1ncc(Nc2cc([C@H](CC)CC(=O)O)ccc2-c2cccc(C(F)F)n2)cn1 (single isomer, unassigned) [Example 66] | – | – | 750 nM
14 | CCOc1ncc(Nc2cc([C@H](CC)CC(=O)O)ccc2-c2ccc(C#N)c(OC)c2)cn1 (single isomer, unassigned) [Example 80] | 250 to 2000 nM | – | ≥ 1000 nM
15 | CCOc1ncc(Nc2cc([C@H](CC)CC(=O)O)ccc2C2CCN(C(=O)OC(C)(C)C)CC2)cn1 (single isomer, unassigned) [Example 25] | – | – | 20 nM
16 | CCOc1ncc(Nc2cc([C@H](CC)CC(=O)O)ccc2-c2ccc(Cl)cc2F)cn1 (single isomer, unassigned) [Example 70] | – | – | 230 nM
17 | CCOc1ncc(Nc2cc([C@H](CC)CC(=O)O)ccc2-c2c(C)noc2C)cn1 (single isomer, unassigned) [Example 54] | – | – | 90 nM
18 | CC[C@H](CC(=O)O)c1ccc(-c2cnn(C)c2)c(Nc2cnc(C)nc2)c1 (single isomer, unassigned) [Example 12] | 250 to 2000 nM | – | ≥ 1000 nM
